# ChEMBL document CHEMBL1201862, “PubChem BioAssay data set” (2004)
#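 Test compounds were applied to cells in 96-well plates for 48 hours at 5 doses. GI50 = concentration required for 50% inhibition of growth.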 Activity calls are given as the source filed them. Rule as the data show it: active = GI50 up to about 1.1 µM and inactive = higher. Starred links: 1 amine or outer side, 2 acyl side, 3 side chain; linkers in the order of their positions; H or OH if unused. Positions of bridges follow the written chain, without caps; N, C: chain ends. Non-standard residues stand in square brackets, D forms with d. Residues, ends and D or L forms follow the SMILES beside them. ξ: configuration not given here. X37 = CC[C@H](C)[C@@H](N[*:1])[C@@H](O)CC(=O)O[C@H](C(=O)[C@H](C)C(=O)[*:2])C(C)C; NMeY = CN[C@@H](Cc1ccc(O)cc1)C(=O)O; dNMeL = CN[C@H](CC(C)C)C(=O)O; ξΔPro = O=C(O)C1C=CCN1
# Legend:
# Experiment in all cases: NCI-60 cell line screen, 48 h
# COLO 205 = test system: COLO 205
# UACC-257 = test system: UACC-257
# 786-0 = test system: 786-0
# EKVX = test system: EKVX
# OVCAR-8 = test system: OVCAR-8
# SW-620 = test system: SW-620
# SK-MEL-5 = test system: SK-MEL-5
# M14 = test system: M14
# Hs-578T = test system: Hs-578T
# PC-3 = test system: PC-3
# A549 = test system: A549
# NCI-H522 = test system: NCI-H522
# NCI-H460 = test system: NCI-H460
# UACC-62 = test system: UACC-62
# KM12 = test system: KM12
# SNB-19 = test system: SNB-19
# SK-OV-3 = test system: SK-OV-3
# MOLT-4 = test system: MOLT-4
# NCI-H23 = test system: NCI-H23
# MDA-MB-231 = test system: MDA-MB-231
SMILES,GI50 (COLO 205),GI50 (UACC-257),GI50 (786-0),GI50 (EKVX),GI50 (OVCAR-8),GI50 (SW-620),GI50 (SK-MEL-5),GI50 (M14),GI50 (Hs-578T),GI50 (PC-3),GI50 (A549),GI50 (NCI-H522),GI50 (NCI-H460),GI50 (UACC-62),GI50 (KM12),GI50 (SNB-19),GI50 (SK-OV-3),GI50 (MOLT-4),GI50 (NCI-H23),GI50 (MDA-MB-231)
CCOC(=O)C1(Cc2ccccc2)C=CN(C(=O)c2ccccc2)C=C1,17.8 µM (inactive),20.6 µM (inactive),43.7 µM (inactive),32.9 µM (inactive),34.4 µM (inactive),32.2 µM (inactive),15.1 µM (inactive),35.5 µM (inactive),32.5 µM (inactive),25.4 µM (inactive),42.4 µM (inactive),24.5 µM (inactive),51.1 µM (inactive),20.2 µM (inactive),36.9 µM (inactive),46.5 µM (inactive),> 100 µM (inactive),20.6 µM (inactive),30.1 µM (inactive),37 µM (inactive)
CC(=O)NC(=O)/N=C1\NCCC(=O)N1CCc1c[nH]c2ccccc12,> 100 µM (inactive),> 100 µM (inactive),> 100 µM (inactive),> 100 µM (inactive),> 100 µM (inactive),> 100 µM (inactive),> 100 µM (inactive),> 100 µM (inactive),> 100 µM (inactive),> 100 µM (inactive),> 100 µM (inactive),> 100 µM (inactive),> 100 µM (inactive),> 100 µM (inactive),> 100 µM (inactive),> 100 µM (inactive),> 100 µM (inactive),> 100 µM (inactive),> 100 µM (inactive),> 100 µM (inactive)
CCCCCOC(=O)C(=O)Nc1[nH]nnc1C(N)=O,> 100 µM (inactive),> 100 µM (inactive),> 100 µM (inactive),> 100 µM (inactive),> 100 µM (inactive),> 100 µM (inactive),> 100 µM (inactive),> 100 µM (inactive),> 100 µM (inactive),> 100 µM (inactive),> 100 µM (inactive),> 100 µM (inactive),> 100 µM (inactive),> 100 µM (inactive),> 100 µM (inactive),> 100 µM (inactive),> 100 µM (inactive),> 100 µM (inactive),> 100 µM (inactive),> 100 µM (inactive)
CCC1(CCSC(=N)N)C(=O)NC(=O)NC1=O,> 100 µM (inactive),> 100 µM (inactive),> 100 µM (inactive),> 100 µM (inactive),> 100 µM (inactive),> 100 µM (inactive),> 100 µM (inactive),> 100 µM (inactive),> 100 µM (inactive),> 100 µM (inactive),> 100 µM (inactive),> 100 µM (inactive),> 100 µM (inactive),> 100 µM (inactive),> 100 µM (inactive),> 100 µM (inactive),> 100 µM (inactive),> 100 µM (inactive),> 100 µM (inactive),> 100 µM (inactive)
O=S(=O)(CCCCl)SCCCCl,29 µM (inactive),45.9 µM (inactive),17.4 µM (inactive),> 100 µM (inactive),13.3 µM (inactive),19.1 µM (inactive),30.7 µM (inactive),21.5 µM (inactive),27.8 µM (inactive),30.1 µM (inactive),68.4 µM (inactive),17.1 µM (inactive),39.4 µM (inactive),36.1 µM (inactive),46.3 µM (inactive),> 95.1 µM (inactive),> 83 µM (inactive),3.17 µM (inactive),45.1 µM (inactive),29.9 µM (inactive)
CC(C)(C)C(=O)CC1=Nc2ccccc2SC1(O)CC(=O)C(C)(C)C (stereo not given),16.3 µM (inactive),37.1 µM (inactive),23.4 µM (inactive),16.2 µM (inactive),21.9 µM (inactive),25.5 µM (inactive),18.9 µM (inactive),29.8 µM (inactive),20.1 µM (inactive),22.5 µM (inactive),20.5 µM (inactive),13 µM (inactive),13.5 µM (inactive),11.8 µM (inactive),20.1 µM (inactive),35.6 µM (inactive),13.5 µM (inactive),3.48 µM (inactive),24.1 µM (inactive),17.8 µM (inactive)
Cc1cc2c(cc1Cl)SC(NNC1=NCCN1)=NS2(=O)=O,> 10 µM (inactive),> 10 µM (inactive),> 10 µM (inactive),> 10 µM (inactive),> 10 µM (inactive),> 10 µM (inactive),> 10 µM (inactive),> 10 µM (inactive),> 10 µM (inactive),> 10 µM (inactive),> 10 µM (inactive),> 10 µM (inactive),> 10 µM (inactive),> 10 µM (inactive),> 10 µM (inactive),> 10 µM (inactive),> 10 µM (inactive),> 10 µM (inactive),> 10 µM (inactive),> 10 µM (inactive)
Cc1cn(C2CC(O)C(COC(N)=O)O2)c(=O)[nH]c1=O (stereo not given),> 100 µM (inactive),> 100 µM (inactive),> 100 µM (inactive),> 100 µM (inactive),> 100 µM (inactive),> 100 µM (inactive),> 100 µM (inactive),> 100 µM (inactive),> 100 µM (inactive),> 100 µM (inactive),> 100 µM (inactive),> 100 µM (inactive),> 100 µM (inactive),> 100 µM (inactive),> 100 µM (inactive),> 100 µM (inactive),> 100 µM (inactive),> 100 µM (inactive),> 100 µM (inactive),> 100 µM (inactive)
O=C(Nc1ccc2nc(O)n[n+]([O-])c2c1)C(F)(F)F,> 100 µM (inactive),> 100 µM (inactive),> 100 µM (inactive),> 100 µM (inactive),> 100 µM (inactive),> 100 µM (inactive),> 100 µM (inactive),> 100 µM (inactive),> 100 µM (inactive),> 100 µM (inactive),> 100 µM (inactive),> 100 µM (inactive),> 100 µM (inactive),> 100 µM (inactive),> 100 µM (inactive),> 100 µM (inactive),> 100 µM (inactive),> 100 µM (inactive),> 100 µM (inactive),> 100 µM (inactive)
C1=CC2C(C3CN(c4ccccc4)N=C13)C1C3C4C=CC21C=CC43 (stereo not given),> 100 µM (inactive),> 100 µM (inactive),> 100 µM (inactive),> 100 µM (inactive),> 95.3 µM (inactive),> 100 µM (inactive),> 100 µM (inactive),> 100 µM (inactive),> 100 µM (inactive),> 100 µM (inactive),> 100 µM (inactive),97.5 µM (inactive),> 100 µM (inactive),> 100 µM (inactive),> 100 µM (inactive),> 100 µM (inactive),> 100 µM (inactive),> 100 µM (inactive),> 100 µM (inactive),> 100 µM (inactive)
Cc1cc(/N=N/c2c(O)ccc3ccccc23)ccc1/N=N/c1cccc([N+](C)(C)C)c1,2.47 µM (inactive),12.2 µM (inactive),21 µM (inactive),17.6 µM (inactive),10.1 µM (inactive),10.1 µM (inactive),2.86 µM (inactive),13.6 µM (inactive),4.17 µM (inactive),6.81 µM (inactive),12.1 µM (inactive),3.98 µM (inactive),9.42 µM (inactive),14.7 µM (inactive),3.37 µM (inactive),3.71 µM (inactive),21.3 µM (inactive),10.8 µM (inactive),13.3 µM (inactive),8.57 µM (inactive)
CC[C@H](C)[C@H]1NC(=O)[C@@H](NC(=O)[C@@H](CC(C)C)N(C)C(=O)C2C=CCN2)[C@@H](C)OC(=O)[C@H](Cc2ccc(OC)cc2)N(C)C(=O)[C@@H]2CCCN2C(=O)[C@H](CC(C)C)NC(=O)[C@@H](C)C(=O)[C@H](C(C)C)OC(=O)C[C@@H]1O (stereo not given in full) (H-[ξΔPro][dNMeL]T[X37]LP[NMeY](Me); ester 3-C),< 0.005 µM (active),< 0.005 µM (active),< 0.005 µM (active),< 0.005 µM (active),< 0.005 µM (active),< 0.005 µM (active),< 0.005 µM (active),< 0.005 µM (active),< 0.005 µM (active),< 0.005 µM (active),< 0.005 µM (active),< 0.005 µM (active),< 0.005 µM (active),< 0.005 µM (active),< 0.005 µM (active),< 0.005 µM (active),< 0.005 µM (active),< 0.005 µM (active),< 0.005 µM (active),< 0.005 µM (active)
